Emax and EC50 data for 21 compounds are collected here from patent publication US8299048B2, “Hexahydrocyclopentyl[f]indazole sulfonamides and derivatives thereof as selective glucocorticoid receptor modulators” (Merck Sharp & Dohme Corp., priority 2008, dated 2012).

The target of this assay is T1, human GR (Homo sapiens, UniProt P04150).
T1 sequence (P04150 1-777): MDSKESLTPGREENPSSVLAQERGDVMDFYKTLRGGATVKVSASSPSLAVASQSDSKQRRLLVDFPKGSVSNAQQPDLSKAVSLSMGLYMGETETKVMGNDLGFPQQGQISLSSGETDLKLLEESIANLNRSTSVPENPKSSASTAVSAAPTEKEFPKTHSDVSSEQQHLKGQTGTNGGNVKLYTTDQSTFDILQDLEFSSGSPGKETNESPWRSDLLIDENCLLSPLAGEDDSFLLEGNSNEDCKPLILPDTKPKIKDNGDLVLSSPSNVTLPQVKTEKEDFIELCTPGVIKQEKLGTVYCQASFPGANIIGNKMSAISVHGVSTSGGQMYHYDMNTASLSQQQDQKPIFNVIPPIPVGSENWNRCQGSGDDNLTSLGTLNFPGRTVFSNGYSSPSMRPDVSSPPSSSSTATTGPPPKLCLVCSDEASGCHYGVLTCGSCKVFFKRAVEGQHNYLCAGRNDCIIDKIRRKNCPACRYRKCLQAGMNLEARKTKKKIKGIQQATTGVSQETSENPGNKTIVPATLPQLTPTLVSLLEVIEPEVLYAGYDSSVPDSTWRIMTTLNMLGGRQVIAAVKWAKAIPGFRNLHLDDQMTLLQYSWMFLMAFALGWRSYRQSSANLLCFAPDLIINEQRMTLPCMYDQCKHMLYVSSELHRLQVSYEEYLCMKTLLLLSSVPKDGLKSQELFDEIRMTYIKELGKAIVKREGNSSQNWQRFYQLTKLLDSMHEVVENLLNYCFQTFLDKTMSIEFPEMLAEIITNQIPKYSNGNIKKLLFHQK
Briefly: Trans-Activation Modulation of Glucocorticoid Receptor (GRAMMER), MMTV-LUC reporter, agonist mode. The format is cell-based. As to conditions: for Emax: A549, A549 cells, maximum activity, read-out: Transactivation A549 Cells GRAMMER Emax; for EC50: A549 cells, inflection point, read-out: Transactivation A549 Cells GRAMMER IP. The arrangement: endogenous in cells. The essentials: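 Readout is luciferase from a modified MMTV LTR promoter after 24 h compound exposure alongside 10 nM dexamethasone (100% activity reference), DMSO ≤1%.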

As to `Cc1nn(C)c(Cl)c1S(=O)(=O)N(CC#N)C[C@H]1CCC2=Cc3c(cnn3-c3ccc(F)cc3)C[C@@]21C` [Example 52, 5-chloro-N-(cyanomethyl)-N-{[(4αR,5S)-1-(4-fluorophenyl)-4α-methyl-1,4,4α,5,6,7-hexahydrocyclopenta[f]indazol-5-yl]methyl}-1,3-dimethyl-1H-pyrazole-4-sulfonamide], the Emax (as a rule, the maximal effect, on the per cent scale that the assay sets) came to 31.9% and the EC50 was determined as 570 nM.
Regarding `C[C@]12Cc3cnn(-c4ccc(F)cc4)c3C=C1CC[C@@H]2CN(CC#N)S(=O)(=O)c1ccccc1-c1ccccc1` [Example 53, N-(cyanomethyl)-N-{[(4αR,5S)-1-(4-fluorophenyl)-4α-methyl-1,4,4α,5,6,7-hexahydrocyclopenta[f]indazol-5-yl]methyl}biphenyl-2-sulfonamide], the Emax was 18.1% and the EC50 stood at 866 nM.
As for `C[C@]12Cc3cnn(-c4ccc(F)cc4)c3C=C1CC[C@@H]2CN(CC#N)S(=O)(=O)c1ccccc1C(F)(F)F` [Example 54, N-(cyanomethyl)-N-{[(4αR,5S)-1-(4-fluorophenyl)-4α-methyl-1,4,4α,5,6,7-hexahydrocyclopenta[f]indazol-5-yl]methyl}-2-(trifluoromethyl)benzenesulfonamide], the Emax was 8.2% and the EC50 was 1080 nM.
In the case of `C[C@]12Cc3cnn(-c4ccc(F)cc4)c3C=C1CC[C@@H]2CN(CC#N)S(=O)(=O)c1ccccc1C#N` [Example 55], the Emax was found to be 47.7% and the EC50 turned out to be 549 nM.
Regarding `Cc1oncc1S(=O)(=O)N(CCO)C[C@H]1CCC2=Cc3c(cnn3-c3ccc(F)cc3)C[C@@]21C` [Example 56, N-{[(4αR,5S)-1-(4-fluorophenyl)-4α-methyl-1,4,4α,5,6,7-hexahydrocyclopenta[f]indazol-5-yl]methyl}-N-(2-hydroxyethyl)-5-methylisoxazole-4-sulfonamide], the Emax was 50.9% and the EC50 worked out at 805 nM.
For `C[C@]12Cc3cnn(-c4ccc(F)cc4)c3C=C1CC[C@@H]2CN(CCO)S(=O)(=O)c1cc(Cl)c(Cl)s1` [Example 58, 4,5-dichloro-N-{[(4αR,5S)-1-(4-fluorophenyl)-4α-methyl-1,4,4α,5,6,7-hexahydrocyclopenta[f]indazol-5-yl]methyl}-N-(2-hydroxyethyl)thiophene-2-sulfonamide], the Emax was 3.1% and the EC50 was determined as 1080 nM.
On to `C[C@]12Cc3cnn(-c4ccc(F)cc4)c3C=C1CC[C@@H]2CN(CCO)S(=O)(=O)c1ccc(F)c(F)c1` [Example 59], for which the Emax was determined as 41.3% and the EC50 turned out to be 437 nM.
`C[C@]12Cc3cnn(-c4ccc(F)cc4)c3C=C1CC[C@@H]2CN(CCO)S(=O)(=O)c1ccc(C#N)cc1Cl` [Example 60, 2-chloro-4-cyano-N-{[(4αR,5S)-1-(4-fluorophenyl)-4α-methyl-1,4,4α,5,6,7-hexahydrocyclopenta[f]indazol-5-yl]methyl}-N-(2-hydroxyethyl)benezenesulfonamide]: the Emax stood at 23% and the EC50 stood at 777 nM.
For the compound `C[C@]12Cc3cnn(-c4ccc(F)cc4)c3C=C1CC[C@@H]2CN(CCO)S(=O)(=O)c1cccc(Cl)c1Cl` [Example 61, 2,3-dichloro-N-{[(4αR,5S)-1-(4-fluorophenyl)-4α-methyl-1,4,4α,5,6,7-hexahydrocyclopenta[f]indazol-5-yl]methyl}-N-(2-hydroxyethyl)benezenesulfonamide], the Emax amounted to 5.8% and the EC50 was determined as 417 nM.
Consider `C[C@]12Cc3cnn(-c4ccc(F)cc4)c3C=C1CC[C@@H]2CNS(=O)(=O)Cc1cccnc1` [Example 169, N-{[(4αR,5S)-1-(4-fluorophenyl)-4α-methyl-1,4,4α,5,6,7-hexahydrocyclopenta[f]indazol-5-yl]methyl}-1-pyridin-3-ylmethanesulfonamide], for which the Emax is 12.4% and the EC50 amounted to 1660 nM.
For the compound `Cc1noc(C)c1S(=O)(=O)N(CC1CCCO1)C[C@H]1CCC2=Cc3c(cnn3-c3ccc(F)cc3)C[C@@]21C` (stereo partly drawn) [Example 170, N-{[(4αR,5S)-1-(4-fluorophenyl)-4α-methyl-1,4,4α,5,6,7-hexahydrocyclopenta[f]indazol-5-yl]methyl}-3,5-dimethyl-N-(tetrahydrofuran-2-ylmethyl)isoxazole-4-sulfonamide], the Emax amounted to 76% and the EC50 was 432 nM.
`CCS(=O)(=O)N(CCOC)C[C@H]1CCC2=Cc3c(cnn3-c3ccc(F)cc3)C[C@@]21C` [Example 171, N-{[(4αR,5S)-1-(4-fluorophenyl)-4α-methyl-1,4,4α,5,6,7-hexahydrocyclopenta[f]indazol-5-yl]methyl}-N-(2-methoxyethyl)ethanesulfonamide]: the Emax was 71.3% and the EC50 amounted to 287 nM.
As for `COCCN(C[C@H]1CCC2=Cc3c(cnn3-c3ccc(F)cc3)C[C@@]21C)S(=O)(=O)c1cn(C)nc1C(F)(F)F` [Example 172, N-{[(4αR,5S)-1-(4-fluorophenyl)-4α-methyl-1,4,4α,5,6,7-hexahydrocyclopenta[f]indazol-5-yl]methyl}-N-(2-methoxyethyl)-1-methyl-3-(trifluoromethyl)-1H-pyrazole-4-sulfonamide], the Emax came out at 10.7% and the EC50 came out at 398 nM.
The matching figures for `COCCN(C[C@H]1CCC2=Cc3c(cnn3-c3ccc(F)cc3)C[C@@]21C)S(=O)(=O)c1c(C)noc1C` [Example 173, N-{[(4αR,5S)-1-(4-fluorophenyl)-4α-methyl-1,4,4α,5,6,7-hexahydrocyclopenta[f]indazol-5-yl]methyl}-N-(2-methoxyethyl)-3,5-dimethylisoxazole-4-sulfonamide]: 70.4% and 364 nM.
Regarding `CCS(=O)(=O)N(CC1CCCO1)C[C@H]1CCC2=Cc3c(cnn3-c3ccc(F)cc3)C[C@@]21C` (stereo partly drawn) [Example 174, N-{[(4αR,5S)-1-(4-fluorophenyl)-4α-methyl-1,4,4α,5,6,7-hexahydrocyclopenta[f]indazol-5-yl]methyl}-N-(tetrahydrofuran-2-ylmethyl)ethanesulfonamide], the Emax worked out at 81.1% and the EC50 turned out to be 527 nM.
Regarding `Cn1cc(S(=O)(=O)N(CC2CCCO2)C[C@H]2CCC3=Cc4c(cnn4-c4ccc(F)cc4)C[C@@]32C)c(C(F)(F)F)n1` (stereo partly drawn) [Example 175, N-{[(4αR,5S)-1-(4-fluorophenyl)-4α-methyl-1,4,4α,5,6,7-hexahydrocyclopenta[f]indazol-5-yl]methyl}-1-methyl-N-(tetrahydrofuran-2-ylmethyl)-3-(trifluoromethyl)-1H-pyrazole-4-sulfonamide], the Emax was determined as 22.7% and the EC50 was determined as 381 nM.
In the case of `Cc1noc(C)c1S(=O)(=O)N(C)C[C@H]1CCC2=Cc3c(cnn3-c3ccc(F)cc3)C[C@@]21C` [Example 176, N-{[(4αR,5S)-1-(4-fluorophenyl)-4α-methyl-1,4,4α,5,6,7-hexahydrocyclopenta[f]indazol-5-yl]methyl}-N,3,5-trimethylisoxazole-4-sulfonamide], the Emax worked out at 56.9% and the EC50 was found to be 246 nM.
The matching figures for `CN(C[C@H]1CCC2=Cc3c(cnn3-c3ccc(F)cc3)C[C@@]21C)S(=O)(=O)CC(F)(F)F` [Example 177, 2,2,2-trifluoro-N-{[(4αR,5S)-1-(4-fluorophenyl)-4α-methyl-1,4,4α,5,6,7-hexahydrocyclopenta[f]indazol-5-yl]methyl}-N-methylethanesulfonamide]: 67.3% and 169 nM.
As for `CCN(C[C@H]1CCC2=Cc3c(cnn3-c3ccc(F)cc3)C[C@@]21C)S(=O)(=O)c1c(C)noc1C` [Example 178, N-ethyl-N-{[(4αR,5S)-1-(4-fluorophenyl)-4α-methyl-1,4,4α,5,6,7-hexahydrocyclopenta[f]indazol-5-yl]methyl}-3,5-dimethylisoxazole-4-sulfonamide], the Emax was 55% and the EC50 amounted to 110 nM.
`CCN(C[C@H]1CCC2=Cc3c(cnn3-c3ccc(F)cc3)C[C@@]21C)S(=O)(=O)CC(F)(F)F` [Example 179, N-ethyl-2,2,2-trifluoro-N-{[(4αR,5S)-1-(4-fluorophenyl)-4α-methyl-1,4,4α,5,6,7-hexahydrocyclopenta[f]indazol-5-yl]methyl}ethanesulfonamide]: the Emax amounted to 65.4% and the EC50 was 277 nM.
As to `COC(=O)c1ccccc1CS(=O)(=O)N(C[C@H]1CCC2=Cc3c(cnn3-c3ccc(F)cc3)C[C@@]21C)C[C@@H](C)O` [Example 180, methyl 2-[({{[(4αR,5S)-1-(4-fluorophenyl)-4α-methyl-1,4,4α,5,6,7-hexahydrocyclopenta[f]indazol-5-yl]methyl}[(2R)-2-hydroxypropyl]amino}sulfonyl)methyl]benzoatee], the Emax worked out at 38.1% and the EC50 worked out at 247 nM.
